Measured values taken from patent US20180244653A1, “SELECTIVE ALPHA-7 NICOTINIC RECEPTOR AGONISTS AND METHODS FOR MAKING AND USING THEM” (THE REGENTS OF THE UNIVERSITY OF CALIFORNIA, priority 2015, published 2018).
Values joined by “and” are separate entries in the source; they are usually repeats but may differ in a detail not shown here. Equal entries are not always repeated. “Also recorded” adds a separate entry of the source. Where two headings read alike, the source gives them in different places.

Key:
5HT3A receptors [1] = target: T1, 5HT3A receptors (Mus musculus, UniProt P23979); assay: Intact cell competitive radioligand binding assay ([3H]-granisetron, SPA), LGIC-CNiFERs; conditions: >10 = did not pass initial screen at 10 μM
T1 construct: expressed in transfected cells; host or cells: HEK293 cells co-expressing TN-XXL
T1 sequence (P23979 24-489): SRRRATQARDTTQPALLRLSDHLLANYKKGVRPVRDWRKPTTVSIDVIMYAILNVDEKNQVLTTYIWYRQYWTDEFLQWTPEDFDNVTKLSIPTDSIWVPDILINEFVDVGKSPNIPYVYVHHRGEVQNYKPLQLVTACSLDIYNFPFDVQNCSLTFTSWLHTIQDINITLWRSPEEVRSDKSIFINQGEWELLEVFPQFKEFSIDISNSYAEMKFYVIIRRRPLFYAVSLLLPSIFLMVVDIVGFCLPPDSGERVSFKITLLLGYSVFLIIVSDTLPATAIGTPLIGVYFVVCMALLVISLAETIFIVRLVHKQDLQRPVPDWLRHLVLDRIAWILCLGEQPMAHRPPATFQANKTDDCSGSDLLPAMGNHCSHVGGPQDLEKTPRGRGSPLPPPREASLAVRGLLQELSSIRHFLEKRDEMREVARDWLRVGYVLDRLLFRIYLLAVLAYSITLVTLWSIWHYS

α4β2-nAChRs = target: T2, α4β2-nAChRs (Homo sapiens, UniProt P17787+P43681); assay: FRET functional assay (agonist/antagonist) using LGIC-CNiFERs; type: cell-based; conditions: for Functional properties at α4β2-nAChRs (agonist / antagonist, type): functional screening and characterization; for Antagonist KA ± SD, α4β2, non-competitive: non-competitive antagonist (^NC)
T2 construct: expressed in transfected cells; host or cells: HEKtsA201 cells co-expressing TN-XXL
Method: (§1) Initially, the agonist properties of tested compounds were assessed directly. […] All α7-nAChR functional assays were performed in the presence of PNU-120596, an α7-nAChR positive allosteric modulator (PAM), to increase signal and delay the sensitization state of α7-nAChRs enabling the measurement of more prolonged FRET signals.^29 Compounds having agonist responses of >0.20 were determined for EC50, and compounds having inhibition fraction of >0.50 were determined for KA.^25 EC50>13.3 μM and KA>10 μM which are a screening concentration for agonist and antagonist, respectively were reported compounds not taken for further in the screening of receptor occupation and responses.
(§2) Agonist and antagonist elicited responses were characterized using the above CNiFER cell expressing Cys-loop ligand-gated ion channel (LGIC) receptors. […] A 96-well black, clear-bottom microplate (Greiner bio-one, Germany) was coated with poly-D-lysine (Sigma-Aldrich, St. Louis, Mo.) 50 μL/well for 30 min and washed out with Phosphate-Buffered Saline (PBS) (Corning, Cellgro, Manassas, Va.) before plating the cells. After plating and incubation at 37° C. for 1 day, the media was replaced with 100 μL of artificial cerebrospinal fluid (aCSF: 121 mM NaCl, 5 mM KCl, 26 mM NaHCO3, 1.2 mM NaH2PO4H2O, 10 mM glucose, 2.4 mM CaCl2, 1.3 mM MgSO4, 5 mM HEPES, pH 7.4) for 4032 and 5HT3A receptors, whereas 10 μM PNU-120596 (Tocris Bioscience, Bristol, UK) in aCSF with 30 min incubation at 37° C. was used for α7-nAChR. The tested compounds were prepared in aCSF for all receptors except α7-nAChR, where 10 μM PNU-120596, a positive allosteric modulator (PAM) was used. The prepared compounds were added in a separate 96-well polypropylene plate (Costar, Corning, N.Y.). Experiments were conducted at 37° C. using 436-nm excitation. Emitted light was collected at 485 nm and 528 nm. Basal fluorescence was recorded for 30 s, followed by addition of 50 μL of ligand (first addition). Measurements were made at 3.84 s intervals for 2 min to measure the agonistic effect. […] Agonist and antagonist properties were sequentially screened at the final concentration of 13.3 and 10 μM, respectively, which differed from the screening concentration from intact cell binding assay (10 μM).

α7-nAChRs = target: T3, α7-nAChRs (Homo sapiens, UniProt P36544); assay: as above; type: cell-based; conditions: for EC50: in presence of 10 μM PNU-120596, * partial agonist, read-out: Agonist EC50 ± SD, α7
T3 construct: expressed in transfected cells; host or cells: HEKtsA201 cells co-expressing TN-XXL
Method: as §1, §2

5HT3A receptors [2] = target: T1, 5HT3A receptors; assay: as above; type: cell-based; conditions: for Kd / Antagonist KA ± SD, 5HT3A: competitive antagonist (^C), vs 5-HT; for Kd: read-out: Antagonist KA ± SD, 5HT3A; for Functional properties at 5HT3A receptors (agonist / antagonist, type): functional screening and characterization; for EC50: read-out: Agonist EC50 ± SD, 5HT3A
Method: as §1, §2

[3] = target: α7/5HT3A chimera receptor (hα7/m5HT3A), used for α7-nAChRs (UniProt P23979+P36544, M226I/T225I); assay: Intact cell competitive radioligand binding assay ([3H]-(±)-epibatidine, SPA), LGIC-CNiFERs; conditions: read-out: Kd ± SD, α7-nAChRs; >10 = did not pass initial screen at 10 μM
[4] = read-out: Antagonist KA ± SD, α4β2
[5] = >10 = did not pass initial screen
[6] = competitive antagonist (^C), >10 = did not pass initial screen, vs (±)-epibatidine
[7] = non-competitive antagonist (^NC)
[8] = competitive antagonist (^C), >10 = did not pass initial screen, vs (±)-epibatidine, read-out: Antagonist KA ± SD, α4β2
[9] = * partial agonist, >10 = did not pass initial screen

c1cc2cc(-c3cn(CCN4CCCCC4)nn3)ccc2[nH]1 [IND1, 5-(1-(2-(Piperidin-1-yl)ethyl)-1H-1,2,3-triazol-4-yl)-1H-indole]
Kd (5HT3A receptors [1]; read-out: Kd ± SD, 5HT3A): 5.52 µM | Kd (α4β2-nAChRs; [4]): > 10 µM | Fold increase in α7-nAChR agonist potency over lead compound TTIn-1 (α7-nAChRs): 3.5 fold | EC50 (α7-nAChRs; [5]): 0.17 µM | Kd (5HT3A receptors [2]; [5]): > 10 µM | Functional properties at 5HT3A receptors (agonist / antagonist, type) (5HT3A receptors [2]): agonist and antagonist responses were not observed | EC50 (5HT3A receptors [2]): > 10 µM

c1cc2cc(-c3cn(CCCN4CCCCC4)nn3)ccc2[nH]1 [IND2, 5-(1-(3-(Piperidin-1-yl)propyl)-1H-1,2,3-triazol-4-yl)-1H-indole]
Kd [3]: 7.2 µM | EC50 (α7-nAChRs; [5]): 2.2 µM | Functional properties at 5HT3A receptors (agonist / antagonist, type) (5HT3A receptors [2]): agonist and antagonist responses were not observed

c1cc2cc(-c3cn(CCCCN4CCCCC4)nn3)ccc2[nH]1 [IND3, 5-(1-(4-(Piperidin-1-yl)butyl)-1H-1,2,3-triazol-4-yl)-1H-indole]
Kd [3]: 13.8 µM | EC50 (α7-nAChRs; [5]): 0.91 µM

CN1[C@@H]2CCC[C@H]1CC(n1cc(-c3ccc4[nH]ccc4c3)nn1)C2 (stereo partly drawn) [IND7, 5-(1-((1R,5S)-9-Methyl-9-azabicyclo[3.3.1]nonan-3-yl)-1H-1,2,3-triazol-4-yl)-1H-indole]
Kd [3]: 4.52 µM | Functional properties at α4β2-nAChRs (agonist / antagonist, type) (α4β2-nAChRs): weak antagonistic properties | Kd (α4β2-nAChRs; read-out: Antagonist KA ± SD, α4β2, non-competitive): 22.2 µM | Functional properties at 5HT3A receptors (agonist / antagonist, type) (5HT3A receptors [2]): agonist and antagonist responses were not observed

CN1CCCC(n2cc(-c3ccc4[nH]ccc4c3)nn2)C1 (centres unmarked) [IND11, 5-(1-(1-Methylpiperidin-3-yl)-1H-1,2,3-triazol-4-yl)-1H-indole]
Kd [3]: 5.07 µM | EC50 (α7-nAChRs; [5]): 3.3 µM

CN(C)CCn1cc(-c2ccc3[nH]ccc3c2)nn1 [IND12, 5-(1-(2-(N,N-Dimethylamino)ethyl)-1H-1,2,3-triazol-4-yl)-1H-indole]
Kd [3]: 7.68 µM | EC50 (α7-nAChRs; [5]): 5.74 µM | Functional properties at 5HT3A receptors (agonist / antagonist, type) (5HT3A receptors [2]): mix-competitive antagonist

c1cc2cc(-c3cn(CCN4CCCC4)nn3)ccc2[nH]1 [IND13, 5-(1-(2-(Pyrrolidin-1-yl)ethyl)-1H-1,2,3-triazol-4-yl)-1H-indole]
Kd [3]: 4.84 µM | EC50 (α7-nAChRs; [5]): 2.17 µM

O=Cc1c[nH]c2ccc(-c3cn(CCN4CCCCC4)nn3)cc12 [PPRD5, 5-((1-(2-Piperidin-1-yl)ethyl)-1,2,3-triazol-4-yl)-indole-3-carbaldehyde]
Kd [3]: 3.27 µM | Kd (α4β2-nAChRs; [4]): > 10 µM | EC50 (α7-nAChRs; [5]): 1.05 ± 0.17 µM | Kd (5HT3A receptors [2]; [5]): > 10 µM | EC50 (5HT3A receptors [2]): > 10 µM

Cn1ccc2cc(-c3cn(CCN4CCCCC4)nn3)ccc21 [PPRD9, 1-(2-((1-Methyl-5-indolyl)-1,2,3-triazol-1-yl)ethyl)piperidine]
Kd [3]: 12.1 µM | Antagonist KA ± SD, α4β2 (α4β2-nAChRs; [6]): 10.5 ± 3.1^C,^ μM | Functional properties at α4β2-nAChRs (agonist / antagonist, type) (α4β2-nAChRs): α4β2-nAChR antagonists; also recorded: mix-competitive antagonist | Antagonist KA ± SD, α4β2, non-competitive (α4β2-nAChRs): 25.5 ± 12.8^NC μM | EC50 (α7-nAChRs; [5]): 12.9 µM | Antagonist KA ± SD, 5HT3A (5HT3A receptors [2]; [5]): 15.1 ± 4.0^C, μM | Functional properties at 5HT3A receptors (agonist / antagonist, type) (5HT3A receptors [2]): mixed (competitive,non-competive) antagonist | Antagonist KA ± SD, 5HT3A, non-competitive (5HT3A receptors [2]; [7]): 56.0 ± 31.0^NC μM

c1ccc2c(-c3cn(CCN4CCCCC4)nn3)c[nH]c2c1 [PPRD12]
Kd (5HT3A receptors [1]; read-out: Kd ± SD, 5HT3A): 2.55 µM and 2.6 µM | Kd (α4β2-nAChRs; [8]): >10 µM | Antagonist KA ± SD, α7 (α7-nAChRs; [6]): 4.5 ± 1.5^C, μM | Functional properties at α7-nAChRs (agonist / antagonist) (α7-nAChRs; functional screening and characterization): weak and non-selective α7-nAChR antagonists | Antagonist KA ± SD, α7, non-competitive (α7-nAChRs; [7]): 11.3 ± 4.5^NC μM | Antagonist KA ± SD, 5HT3A (5HT3A receptors [2]; [5]): 2.1 ± 0.3^C μM | Functional properties at 5HT3A receptors (agonist / antagonist, type) (5HT3A receptors [2]): competitive antagonist

COC(=O)c1cc(-c2cn(CCN3CCCCC3)nn2)ccc1O [PPRD14, Methyl 2-hydroxy-5-(1-(2-(piperidin-1-yl)ethyl)-1,2,3-triazol-4-yl)benzoate]
Kd [3]: > 10 µM | Kd (α4β2-nAChRs; [4]): > 10 µM | Kd (α7-nAChRs; competitive antagonist (^C), >10 = did not pass initial screen, vs (±)-epibatidine, read-out: Antagonist KA ± SD, α7): > 10 µM | EC50 (α7-nAChRs; [5]): > 10 µM | Kd (5HT3A receptors [2]; [5]): 1.44 µM and 1.4 µM | Functional properties at 5HT3A receptors (agonist / antagonist, type) (5HT3A receptors [2]): competitive antagonist

COC(=O)c1cc(-c2cn(CCN3CCCCC3)nn2)ccc1N [PPRD15, Methyl 2-amino-5-(1-(2-(piperidin-1-yl)ethyl)-1,2,3-triazol-4-yl)benzoate]
Kd [3]: 4.4 µM | Kd (α4β2-nAChRs; [4]): > 10 µM | EC50 (α7-nAChRs; [5]): 3.1 µM | Kd (5HT3A receptors [2]; [5]): 6 µM | Functional properties at 5HT3A receptors (agonist / antagonist, type) (5HT3A receptors [2]): competitive antagonist

c1cc2c(cc1-c1cn(C3CN4CCC3CC4)nn1)OCO2 (centres unmarked) [QND1, 3-(4-(Benzo-1,3-dioxol-5-yl)-1,2,3-triazol-1-yl)quinuclidine]
Kd [3]: 0.16 µM | Kd (5HT3A receptors [1]; Kd ± SD, 5HT3A): 0.02 to 0.05 µM | Kd (α4β2-nAChRs; Antagonist KA ± SD, α4β2, competitive antagonist (^C), >10 = did not pass initial screen, vs (±)-epibatidine): > 10 µM | EC50 (α7-nAChRs; [5]): 0.12 ± 0.04 µM | EC50 (5HT3A receptors [2]): 0.3 ± 0.04 µM

Nc1ccc(-c2cn(C3CN4CCC3CC4)nn2)cc1 (centres unmarked) [QND2, 3-(4-Aminophenyl-1,2,3-triazol-1-yl)quinuclidine]
Kd (5HT3A receptors [1]; read-out: Kd ± SD, 5HT3A): 1.21 µM | Kd (α4β2-nAChRs; [8]): >10 µM | Fold increase in α7-nAChR agonist potency over lead compound TTIn-1 (α7-nAChRs): 20 fold | EC50 (α7-nAChRs; [5]): 0.05 µM | EC50 (5HT3A receptors [2]; [9]): 1.63 ± 0.29 µM | Functional properties at 5HT3A receptors (agonist / antagonist, type) (5HT3A receptors [2]): 5HT3A receptor agonist properties

Clc1ccc(-c2cn(C3CN4CCC3CC4)nn2)cc1 (centres unmarked) [QND13, 3-(4-chlorophenyl-1,2,3-triazol-1-yl)quinuclidine]
Antagonist KA ± SD, α4β2 (α4β2-nAChRs; [6]): 11.2 ± 2.6^C, μM | Functional properties at α4β2-nAChRs (agonist / antagonist, type) (α4β2-nAChRs): mix-competitive antagonist | Antagonist KA ± SD, α4β2, non-competitive (α4β2-nAChRs): 23 ± 6^NC μM | EC50 (α7-nAChRs; [5]): 1.01 µM | EC50 (5HT3A receptors [2]; [9]): 4.9 ± 1.2 µM | Functional properties at 5HT3A receptors (agonist / antagonist, type) (5HT3A receptors [2]): 5HT3A receptor agonist properties
